# Laboratory results taken from patent US8791163B2 (McGill University, priority 2006, dated 2014).
# Molecular target: T1, cloned human MT2 receptors (Homo sapiens, UniProt P49286)
# T1 construct: expressed in transfected cells
# T1 sequence (P49286 1-362): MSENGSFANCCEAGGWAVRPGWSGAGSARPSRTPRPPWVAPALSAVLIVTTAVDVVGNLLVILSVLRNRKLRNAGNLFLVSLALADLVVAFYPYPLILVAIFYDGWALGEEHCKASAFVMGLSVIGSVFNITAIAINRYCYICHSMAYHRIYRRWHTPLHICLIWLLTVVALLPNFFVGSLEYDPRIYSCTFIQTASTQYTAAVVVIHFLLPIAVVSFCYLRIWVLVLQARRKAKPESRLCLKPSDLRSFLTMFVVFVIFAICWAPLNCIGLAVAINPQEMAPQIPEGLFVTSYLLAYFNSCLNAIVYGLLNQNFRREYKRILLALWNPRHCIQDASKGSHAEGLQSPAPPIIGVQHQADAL
# Assay: 2-[125I]iodomelatonin competition binding, human MT2 in NIH3T3 cells
# Conditions: human recombinant receptors expressed in NIH3T3 cells
smiles,measurement,value
"COc1cccc(N(CCNC(C)=O)c2ccccc2)c1 [5b, N-{2-[(3-Methoxyphenyl)-phenylamino]ethyl}acetamide]",higher affinity for the MT2 than for the MT1 subtype,~100 fold
